# What was measured:
# [1] = target: T1, sortilin (Homo sapiens, UniProt Q99523); assay: 3H-neurotensin-binding sortilin scintillation proximity assay (SPA); settings: for IC50: 150 nM sortilin, 5 nM 3H-neurotensin, averages of at least four determinations, read-out: IC50 (displacement of 3H-neurotensin binding to sortilin); for activity in SPA assay (in words): structure-activity relationship relative to hit 1a
# T1 construct: The extracellular Vps10p domain of sortilin was overexpressed in HEK293F cells and purified from the medium; made in house; host or cells: HEK293F
# T1 sequence (Q99523 78-755 limits assumed): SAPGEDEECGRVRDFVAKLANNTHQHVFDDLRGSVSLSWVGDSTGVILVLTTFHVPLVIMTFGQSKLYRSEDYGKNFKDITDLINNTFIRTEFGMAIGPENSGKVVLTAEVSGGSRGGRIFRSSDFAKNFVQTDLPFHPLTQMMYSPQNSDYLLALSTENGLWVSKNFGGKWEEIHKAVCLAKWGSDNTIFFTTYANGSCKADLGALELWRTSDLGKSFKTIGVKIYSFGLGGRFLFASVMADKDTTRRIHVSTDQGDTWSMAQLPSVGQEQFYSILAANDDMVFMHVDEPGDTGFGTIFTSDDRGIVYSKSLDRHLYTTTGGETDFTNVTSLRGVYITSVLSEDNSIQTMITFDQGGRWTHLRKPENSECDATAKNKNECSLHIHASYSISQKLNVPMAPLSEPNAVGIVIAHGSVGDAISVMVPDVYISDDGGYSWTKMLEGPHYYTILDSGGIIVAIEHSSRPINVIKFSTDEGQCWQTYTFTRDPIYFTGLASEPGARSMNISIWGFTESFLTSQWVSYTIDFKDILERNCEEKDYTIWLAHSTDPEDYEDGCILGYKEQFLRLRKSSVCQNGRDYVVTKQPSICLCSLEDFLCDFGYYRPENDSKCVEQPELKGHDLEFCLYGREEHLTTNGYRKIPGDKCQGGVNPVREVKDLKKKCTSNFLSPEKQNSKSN
# Experimental: The open reading frame of human sortilin including the endogenous signal peptide to residue 723 was amplified by PCR and cloned into the pCEP-pu vector with XbaI and XhoI. The primers were designed to include a C-terminal factor Xa site followed by a hexahistidine tag. HEK293F cells were transfected with 900 µg plasmid, applying 900 µl FreeStyle MAX reagent (Invitrogen) according to the manufacturer’s instructions, and were grown in 900 ml FreeStyle 293 medium (Invitrogen) in a 3 l Erlenmeyer flask for 7 d. The medium was harvested by centrifugation at 3700g for 15 min, filtered through a 0.40 µm filter and the pH was adjusted by supplementation with Tris–HCl pH 8.0 to a final concentration of 50 mM. A 5 ml Ni–NTA column (GE Healthcare) was equilibrated in buffer A (50 mM Tris–HCl pH 8.0, 150 mM NaCl) and the medium was recirculated over the column overnight. The column was washed with five column volumes of wash buffer (50 mM Tris–HCl pH 8.0, 150 mM NaCl, 10 mM imidazole) and sortilin was eluted with a ten-column-volume imidazole gradient (10–250 mM imidazole). Fractions containing sortilin were pooled and concentrated by […] (Vivaspin 20, 10 kDa cutoff, Sartorius). The sortilin was applied onto a Superdex 200 10/300 GL column (GE Healthcare) equilibrated in buffer A. Fractions containing sortilin were pooled, concentrated to a final concentration of 5 mg ml^−1, flash-frozen in liquid nitrogen and stored at −80°C.
# The compound affinity was determined by measuring the displacement of ^3H-neurotensin binding to sortilin using a scintillation proximity assay (SPA). Experiments were performed in assay buffer (50 mM HEPES pH 7.4, 100 mM NaCl, 2.0 mM CaCl2, 0.1% BSA, 0.1% Tween-20) with a total volume of 40 µl. The compound was pre-incubated for 30 min at room temperature with 150 nM sortilin before 5 nM ^3H-neurotensin and Ni-chelate imaging beads (Perkin Elmer) were added. After 6 h, the plate was read on a ViewLux with 360 s exposure time. Unlabelled neurotensin and a DMSO blank were used as positive and negative controls, respectively. Dose-response evaluation of compounds was performed with ten concentrations of 1a–1h and AF40431 (covering concentrations between 2.5 nM and 50 µM). The half-maximal inhibitory concentration (IC50) values were calculated by nonlinear regression using the sigmoid concentration response (variable slope) in XLfit 4 (IDBS, UK). All values reported are the averages of at least four determinations.
# [2] = target: T2, sortilin (Homo sapiens, UniProt Q99523); assay: Isothermal titration calorimetry (ITC) of binding to sortilin; settings: 25°C, PBS pH 7.4, 4% DMSO, read-out: dissociation constant (Kd)
# T2 construct: The extracellular Vps10p domain of sortilin was overexpressed in HEK293F cells and purified from the medium; made in house; host or cells: HEK293F
# T2 sequence (Q99523 78-756): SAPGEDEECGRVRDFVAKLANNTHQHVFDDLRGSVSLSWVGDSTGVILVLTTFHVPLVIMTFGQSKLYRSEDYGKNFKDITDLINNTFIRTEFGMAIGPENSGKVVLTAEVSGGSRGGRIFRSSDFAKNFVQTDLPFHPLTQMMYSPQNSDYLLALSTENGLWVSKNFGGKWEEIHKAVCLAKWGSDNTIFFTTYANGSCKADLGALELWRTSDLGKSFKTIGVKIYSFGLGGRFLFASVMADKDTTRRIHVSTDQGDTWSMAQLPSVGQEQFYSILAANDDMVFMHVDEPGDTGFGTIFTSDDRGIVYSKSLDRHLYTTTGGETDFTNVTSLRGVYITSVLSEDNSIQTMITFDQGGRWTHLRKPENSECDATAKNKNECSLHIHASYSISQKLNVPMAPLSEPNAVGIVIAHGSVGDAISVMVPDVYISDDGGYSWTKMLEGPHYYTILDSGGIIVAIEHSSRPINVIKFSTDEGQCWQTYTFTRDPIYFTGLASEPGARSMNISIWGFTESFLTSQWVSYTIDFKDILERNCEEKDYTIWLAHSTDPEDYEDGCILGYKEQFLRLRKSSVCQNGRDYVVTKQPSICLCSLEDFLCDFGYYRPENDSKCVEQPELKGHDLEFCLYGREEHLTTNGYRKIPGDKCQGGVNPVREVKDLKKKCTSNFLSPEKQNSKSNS
# Experimental: The open reading frame of human sortilin including the endogenous signal peptide to residue 723 was amplified by PCR and cloned into the pCEP-pu vector with XbaI and XhoI. The primers were designed to include a C-terminal factor Xa site followed by a hexahistidine tag. HEK293F cells were transfected with 900 µg plasmid, applying 900 µl FreeStyle MAX reagent (Invitrogen) according to the manufacturer’s instructions, and were grown in 900 ml FreeStyle 293 medium (Invitrogen) in a 3 l Erlenmeyer flask for 7 d. The medium was harvested by centrifugation at 3700g for 15 min, filtered through a 0.40 µm filter and the pH was adjusted by supplementation with Tris–HCl pH 8.0 to a final concentration of 50 mM. A 5 ml Ni–NTA column (GE Healthcare) was equilibrated in buffer A (50 mM Tris–HCl pH 8.0, 150 mM NaCl) and the medium was recirculated over the column overnight. […]
# The binding of AF40431 to sortilin was measured by isothermal titration calorimetry (ITC). […] Heat evolving from dilution was measured by injecting the ligand into PBS supplemented with 4% DMSO. […] Finally, the binding stoichiometry (n), equilibrium dissociation constant (K d), molar enthalpy and entropy changes for the binding processes were determined by analyzing the titration data using Origin software (OriginLab, Northampton, Massachusetts, USA).
# [3] = target: NTSR1 (Homo sapiens, UniProt P30989); assay: Competition of NTS binding to NTSR1; settings: data not shown
# [4] = target: proNGF (Homo sapiens) (UniProt P01138); settings: cited from earlier work
# Sequence of proNGF (Homo sapiens) (P01138 122-241): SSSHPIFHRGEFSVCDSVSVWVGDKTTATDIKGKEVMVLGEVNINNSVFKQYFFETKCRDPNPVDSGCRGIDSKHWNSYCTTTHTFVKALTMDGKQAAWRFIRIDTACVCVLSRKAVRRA
# Sequence of NTSR1 (P30989 whole entry, species assumed): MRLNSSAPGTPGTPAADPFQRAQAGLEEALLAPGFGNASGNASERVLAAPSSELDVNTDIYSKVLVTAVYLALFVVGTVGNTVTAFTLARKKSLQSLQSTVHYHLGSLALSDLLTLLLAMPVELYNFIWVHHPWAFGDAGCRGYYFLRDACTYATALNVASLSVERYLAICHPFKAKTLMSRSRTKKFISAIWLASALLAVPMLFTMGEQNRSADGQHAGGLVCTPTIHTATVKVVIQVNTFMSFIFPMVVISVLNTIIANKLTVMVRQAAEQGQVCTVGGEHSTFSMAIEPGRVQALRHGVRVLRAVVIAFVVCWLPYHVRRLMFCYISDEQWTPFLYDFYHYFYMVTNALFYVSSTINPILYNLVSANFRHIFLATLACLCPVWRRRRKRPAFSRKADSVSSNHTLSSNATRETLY
IC50 [1] [µM],Kd [2] [µM],IC50 [3] [µM],activity in SPA assay (in words) [1],Compound,Kd [4] [µM]
4.4 ± 0.7,0.7,> 50,–,Cc1cc(=O)oc2c(CN[C@@H](CC(C)C)C(=O)O)c(O)ccc12 [AF40431],–
1.8,–,–,–,Cc1cc(=O)oc2c(CNC(CC(C)C)C(=O)O)c(O)ccc12 (stereo not shown) [Compound 1a],–
6.1 ± 2.7,–,–,activity was retained,CCC(C)C(NCc1c(O)ccc2c(C)cc(=O)oc12)C(=O)O (stereo not shown) [Compound 1b],–
3.1 ± 1.1,–,–,activity was retained,Cc1cc(=O)oc2c(CNC(CC(C)(C)C)C(=O)O)c(O)ccc12 (stereo not shown) [Compound 1c],–
1.7 ± 0.3,–,–,activity was retained,Cc1cc(=O)oc2c(CNC(C(=O)O)C3CCCCC3)c(O)ccc12 (stereo not shown) [Compound 1d],–
> 50,–,–,activity was ablated,Cc1cc(=O)oc2c(CNC(C(=O)O)C(C)C)c(O)ccc12 (stereo not shown) [Compound 1e],–
> 50,–,–,activity was ablated,Cc1cc(=O)oc2c(CNC(C)C(=O)O)c(O)ccc12 (stereo not shown) [Compound 1f],–
> 50,–,–,activity was ablated,Cc1cc(=O)oc2c(CNC(Cc3ccccc3)C(=O)O)c(O)ccc12 (stereo not shown) [Compound 1g],–
> 50,–,–,inactive,Cc1cc(=O)oc2c(CN[C@H](CC(C)C)C(=O)O)c(O)ccc12 [Compound 1h],–
–,–,–,–,Sortilin (from UniProt Q99523),0.00016
